Experimental findings from patent publication US10647687B2, “Spiropyrazine derivatives as inhibitors of non-apoptotic regulated cell-death” (Helmholtz Zentrum München Deutsches Forschungszentrum für …, priority 2014, dated 2020) are described below.

Like-named read-outs stand apart in the source and are kept apart here.

In data set [1] the test system is Pfa1 cells. Kind of data set: Inhibition of non-apoptotic cell death after tamoxifen-induced GPx4 knockout (Pfa1/TAM, Example B.4). It is filed as cell-based, mouse. The source says:
To combat high intracellular ROS levels, mammalian cells have evolved an intricate network of ROS scavenging in cells, in which the thioredoxin and glutathione (GSH) dependent systems prevail. […] Knockout of GPx4 in neurons causes massive neurodegeneration in cortical, cerebellar and hippocampal neurons underscoring the high relevance of ROS-induced cell death signaling in the brain. Briefly, immortalised fibroblasts from these mice were made to contain tamoxifen-inducible CreERT2, which catalyzes the functional ablation of both copies of GPx4 and resulting in a complete knockout of GPx4, a massive ROS burst, and cell death in cell culture. These cells (Pfa1 cells) were used to characterize compounds disclosed herein, whereby tamoxifen (TAM) was given on day 0 along with the compound under test, and 72 hours later cell survival was evaluated using AlamarBlue.

Data set [2] has as its system SH-SY5Y cells. Kind of data set: Specificity: TNF-alpha-induced apoptosis in SH-SY5Y cells (Example B.3). The following applies: compound 1 μM, TNF-alpha 10 ng/mL, FIG. 1. It is filed as cell-based, human. The procedure:
SH-SY5Y cells were propagated and seeded in 96-well plates, together with compound N-1, N-2, N-10 of Table 1-N (FIG. 1A), compound O/S-6 or O/S-3 of Table 1-O/S (FIG. 1B), or compound C-12, C-91, or C-205 of Table 1-C (FIG. 1C) (each 1 μM) and TNF-alpha was added (final concentration: 10 ng/mL) to induce apoptosis. The apoptosis and pan-caspase inhibitor z-vad (final concentration: 50 μM) and the necroptosis inhibitor Necrostatin-1 (Nec-1; final concentration: 5 μM) were used for comparison. Control wells were established with vehicle only (DMSO), with and without treatment with TNF-alpha to induce apoptosis. Cells were incubated, and cell survival was detected and quantified. Percentage cell survival after TNF-alpha-induced apoptosis is shown (error bars indicate standard deviation (SD)).
Briefly, SH-SY5Y cells were propagated and seeded in 96-well plates, together with the compound to be tested (1 μM), generally as described in Example B.1, except they were seeded at 1,000 cell/well and instead of BSO, TNF-alpha (Invitrogen) was added to a final concentration of 10 ng/mL to induce apoptosis. The apoptosis and pan-caspase inhibitor Z-VAD-fink (Enzo Life Science; final concentration 50 μM) and the necroptosis inhibitor Necrostatin-1 (Nec-1; Enzo Life Science; final concentration 5 μM) were used for comparison. Control wells were established with vehicle only (DMSO), with and without treatment with TNF-alpha to induce apoptosis. Cells were incubated, and cell survival was detected and quantified as described in Example B.1.

Data set [3] is described as follows: Cellular toxicity, Pfa1 cells without TAM (Example B.5). Particulars: mouse, * not tested at higher concentrations, read-out: TC50 (the source's name). The format is cell-based. From the text:
An estimate of the toxicity for compounds disclosed herein was obtained by using the same assay as described in Example B.4, but without the addition of TAM. […] Such TC50 values obtained for certain compounds disclosed herein, together with an approximate therapeutic window (estimated by dividing each TC50 by the corresponding IC50 determined from example B.4) are shown in Table 3 and Table 4.

For data set [4], the system named is mouse hippocampal cell line (Ht22). Kind of data set: Inhibition of glutamate-induced non-apoptotic cell death (Ht22/GLU, Example B.2). The format is cell-based. The source says: Glutamate toxicity is conferred on cells from the mouse hippocampal cell line (Ht22) by inhibition of the cysteine/glutamate antiporter, System xc-, leading to impaired cysteine uptake and subsequent GSH depletion. This model is frequently used for mimicking glutathione depletion following oxidative stress in stroke, brain trauma and other neurodegenerative diseases and cellular conditions following ischemia (for example: van Leyen et al, J. Neurochem. 92:824-30 (2005)).
Compounds disclosed herein were evaluated for their ability to promote cell survival upon administration of a lethal dose of glutamate (GLU) to the cell-culture medium.
Briefly, Ht22cells (ATCC or Invitrogen) were propagated DMEM supplemented with 10% FBS/1% Penicillin-Streptomycin, and then seeded onto 96-well plates at a concentration of 2,000 cells/well in 100 μL of MEDIA, simultaneously with glutamate (Sigma Aldrich) to a final concentration of 5 mM, together with increasing concentrations of the compound to be tested (0.5 pM to 100 μM), and the plates incubated at 37° C./5% CO2 for 72 hours. Compound dilutions were prepared from 10 mM stocks dissolved in DMSO and diluted in media. Cells treated with glutamate alone were used as negative control and alpha-tocopherol (Sigma Aldrich) was used as positive control. Compound concentrations were tested in triplicate. After incubation, cell survival was detected and quantified as described in Example B.1.

Where [5] appears, read: Mus musculus, methylated analogues of C-2.
Setting [6] is: Mus musculus, tamoxifen on day 0, cell survival after 72 hours.
Where [7] appears, read: HT-22, 5 mM glutamate, 72 hours, cell survival, read-out: Ht22/GLU.
The mark [8] stands for this setting: HT-22, 72 h, read-out: Ht22/GLU [μM].

In the case of `CN1/C(=N/Cc2cccc(Cl)c2)C2(CCCCC2)N(C)c2ccccc21` [C-2-2Me], the IC50 in data set [1] (setting [5]) is > 10 µM.

`CN1c2ccccc2N=C(NCc2cccc(Cl)c2)C12CCCCC2` [C-2-Me-I]: the IC50 in data set [1] (methylated analogues of C-2) is > 10 µM.

`Clc1cccc(CNC2=Nc3ccccc3NC23CCCCC3)c1` [C-2]: the IC50 in data set [1] (setting [5]) is < 0.01 µM.

With `CC1CCC2(CC1)Nc1ccccc1N=C2NCc1ccccc1Cl` (stereo not shown) [C-91], in data set [2], the “Percentage cell survival after TNF-alpha-induced apoptosis” value (shortened to “Percentage cell survival”) was “Non-inhibition of apoptotic cell-death”.

For `Clc1ccccc1CNC1=Nc2ccccc2NC12CCCCCC2` [C-205], the “Percentage cell survival” value in data set [2] is given as “Non-inhibition of apoptotic cell-death”.

As for `CC(C)CCNC1=Nc2ccccc2NC12CCCCCC2` [D-1], the IC50 in data set [1] (setting [6]) is < 2 µM; in data set [4] (setting [7]), < 1 µM. The CC50 in data set [3] fell in the range of 10 to 50 µM.

As to `c1ccc2c(c1)CCC2NC1=Nc2ccccc2NC12CCCCC2` [D-2], the IC50 in data set [1] (setting [6]) is < 2 µM; in data set [4] (setting [7]) it was < 1 µM. For the same compound, in data set [3], the CC50 is 10 to 50 µM.

With `c1ccc2c(c1)CCC2NC1=Nc2ccccc2NC12CCOCC2` [D-3], the IC50 in data set [1] (setting [6]) was < 2 µM; in data set [4] (setting [7]), < 5 µM. Also, in data set [3], the CC50 lay in the range of 50 to 100 µM.

`c1ccc2c(c1)CCCC2NC1=Nc2ccccc2NC12CCCCC2` [D-4]: the figures for the IC50 in data set [1] (setting [6]) and in data set [4] (setting [7]) were < 0.2 µM and < 0.5 µM, respectively. Moreover, the CC50 in data set [3] lay in the range of 20 to 50 µM.

As to `c1ccc2c(c1)CCC2NC1=Nc2ccccc2NC12CCNCC2` [D-5], the IC50 in data set [1] (setting [6]) is < 0.1 µM; in data set [4] (setting [7]), < 0.2 µM. Also, the CC50 in data set [3] was in the range of 5 to 10 µM.

`c1ccc2c(c1)N=C(NCCc1c[nH]c3ccccc13)C1(CCNCC1)N2` [D-6]: the IC50 in data set [1] (setting [6]) was < 0.1 µM; in data set [4] (setting [7]), < 0.5 µM. The CC50 in data set [3] was 5 to 10 µM.

`c1ccc2c(c1)CCCC2NC1=Nc2ccccc2NC12CCNCC2` [D-7]: the IC50 in data set [1] (setting [6]) is < 0.1 µM; in data set [4] (setting [7]), < 0.2 µM. Moreover, the CC50 in data set [3] lay within 10 to 20 µM.

In the case of `Clc1cccc(CNC2=Nc3ccccc3NC23CC2CCC(C3)N2)c1` [D-8], the IC50 in data set [1] (setting [6]) and in data set [4] (setting [8]) was < 0.05 µM each time. Also, in data set [3], the CC50 was in the range of 2 to 5 µM.

Regarding `c1ccc(CNC2=Nc3ccccc3NC23CC2CCC(C3)N2)cc1` [D-9], the IC50 in data set [1] (setting [6]) and in data set [4] (setting [8]) was < 0.5 µM in each case. The CC50 in data set [3] was in the range of 5 to 10 µM.

Regarding `Clc1cccc(CNC2=Nc3ncccc3NC23CCCCC3)c1` [D-10], the IC50 in data set [1] (setting [6]) and in data set [4] (setting [7]) was < 5 µM in each case. The CC50 in data set [3] was 1 to 5 µM.

In the case of `Clc1cccc(CNC2=Nc3cc(Cl)ncc3NC23CCCCC3)c1` [D-11], the IC50 in data set [1] (setting [6]) and in data set [4] (setting [7]) was < 5 µM throughout. The CC50 in data set [3] was 10 to 50 µM.

Regarding `c1csc(CNC2=Nc3ccccc3NC23CCCCC3)c1` [D-12], the IC50 in data set [1] (setting [6]) was < 5 µM; in data set [4] (setting [7]) it was < 1 µM. In data set [3], the CC50 is 10 to 50 µM.

Regarding `c1cncc(CNC2=Nc3ccccc3NC23CCCCC3)c1` [D-13], the IC50 in data set [1] (setting [6]) and in data set [4] (setting [7]) was < 5 µM in each case. Besides, the CC50 in data set [3] was in the range of 50 to 100 µM.

For the compound `CCOC(=O)c1ccc2c(c1)N=C(NC1CCCCC1)C1(CCCCC1)N2` [D-14], the figures for the IC50 in data set [1] (setting [6]) and in data set [4] (setting [7]) were < 1 µM and < 0.5 µM, respectively. Besides, the CC50 in data set [3] lay in the range of 10 to 50 µM.

As for `CC(C)(C)NC1=Nc2ccccc2NC12CCOCC2` [D-15], the IC50 in data set [1] (setting [6]) and in data set [4] (setting [7]) was < 5 µM in each case. Further, the CC50 in data set [3] lay within 50 to 100 µM.

`CC(C)(C)NC1=Nc2ccccc2NC12CCSCC2` [D-16]: the IC50 in data set [1] (setting [6]) and in data set [4] (setting [7]) was < 1 µM throughout. In data set [3], the CC50 was > 5 µM.

For the compound `Cc1cc(CNC2=Nc3ccccc3NC23CCCCC3)on1` [D-17], the results for the IC50 in data set [1] (setting [6]) and in data set [4] (setting [7]) were < 5 µM and < 2 µM, respectively. The CC50 in data set [3] is > 50 µM.

Turning to `Clc1cc2c(cc1Cl)NC1(CCCCC1)C(NCc1cccnc1)=N2` [D-19], the IC50 in data set [1] (setting [6]) was < 0.5 µM; in data set [4] (setting [7]), < 0.05 µM. For the same compound, the CC50 in data set [3] lay in the range of 10 to 50 µM.

With `c1ccc2c(c1)N=C(NCc1nccs1)C1(CCCCC1)N2` [D-20], the IC50 in data set [1] (setting [6]) is < 5 µM; in data set [4] (setting [7]), < 2 µM. In addition, the CC50 in data set [3] is > 50 µM.

`Clc1cc2c(cc1Cl)NC1(CCCCC1)C(NCc1cccs1)=N2` [D-21]: the results for the IC50 in data set [1] (setting [6]) and in data set [4] (setting [7]) were < 0.5 µM and < 0.2 µM, respectively. The CC50 in data set [3] is 5 to 10 µM.

Consider `c1ccc2c(c1)N=C(NCc1cncs1)C1(CCCCC1)N2` [D-22], for which the IC50 in data set [1] (setting [6]) and in data set [4] (setting [7]) was < 5 µM in each case. In addition, in data set [3], the CC50 was > 50 µM.

As to `c1coc(CNC2=Nc3ccccc3NC23CCCCC3)c1` [D-23], the IC50 in data set [1] (setting [6]) and in data set [4] (setting [7]) was < 5 µM each time. Also, the CC50 in data set [3] is > 50 µM.

As for `c1ccc2c(c1)N=C(NCc1ccncc1)C1(CCCCC1)N2` [D-24], the IC50 in data set [1] (setting [6]) and in data set [4] (setting [7]) was < 5 µM each time. In addition, in data set [3], the CC50 was > 50 µM.

On to `c1csc(CNC2=Nc3ccccc3NC23CCNCC3)c1` [D-181], for which the values for the IC50 in data set [1] (setting [6]) and in data set [4] (setting [7]) were < 0.5 µM and < 0.1 µM, respectively. In addition, the CC50 in data set [3] lay within 20 to 50 µM.

For the compound `CN1CCC2(CC1)Nc1cc(Cl)c(Cl)cc1N=C2NCc1cccc(Cl)c1` [F-24], the IC50 was < 0.05 µM in data set [1] (setting [6]) and < 0.02 µM in data set [4] (setting [7]). In addition, the CC50 in data set [3] lay in the range of 0.2 to 0.5 µM.

As to `C#CCCCCCCCCC(=O)N1CCC2(CC1)Nc1ccccc1N=C2NCc1cccc(Cl)c1` [F-25], the IC50 in data set [1] (setting [6]) and in data set [4] (setting [7]) was < 0.2 µM throughout. Further, in data set [3], the CC50 lay in the range of 10 to 20 µM.

Consider `C#CCCCCCCCCC(=O)N1CCC2(CC1)Nc1cc(Cl)c(Cl)cc1N=C2NCc1cccc(Cl)c1` [F-26], for which the IC50 in data set [1] (setting [6]) and in data set [4] (setting [7]) was < 0.2 µM each time. Further, the CC50 in data set [3] was 10 to 20 µM.

On to `Clc1ccccc1CNC1=Nc2ccccc2NC12CCNCC2` [N-1], for which the “Percentage cell survival” value in data set [2] is reported as “Non-inhibition of apoptotic cell-death”.

Consider `Clc1ccc(CNC2=Nc3ccccc3NC23CCOCC3)cc1` [O/S-3], for which the “Percentage cell survival” value in data set [2] is listed as “Non-inhibition of apoptotic cell-death”.
